In ChEMBL document CHEMBL5113402, “Inhibition of cytochrome P450 monooxygenase-catalyzed oxylipin formation by flavonoids: Evaluation of structure-activity relationship towards CYP4F2-selective inhibitors” (Eur J Med Chem, 2022):
Converted amounts (≈) assume the structure as drawn.

Assays:
[1] = Solubility of the compound in phospahte-buffered saline buffer at pH 7.4 by shake flask method; assay type: physicochemical; details: phosphate-buffered saline
[2] = Drug recovery in human HCT-116 cells incubated for 24 hrs; assay type: ADME, cell-based; details: read-out: Drug recovery
Cytochrome P450 4A11 = target: T1, Cytochrome P450 4A11 (Homo sapiens, UniProt Q02928); assay: Inhibition of recombinant human CYP4A11 expressed in baculovirus-infected insect cells in presence of arachidonic acid and NADPH incubated for 15 mins by jump-dilution assay relative to control; assay type: ADME
T1 sequence (Q02928 whole entry): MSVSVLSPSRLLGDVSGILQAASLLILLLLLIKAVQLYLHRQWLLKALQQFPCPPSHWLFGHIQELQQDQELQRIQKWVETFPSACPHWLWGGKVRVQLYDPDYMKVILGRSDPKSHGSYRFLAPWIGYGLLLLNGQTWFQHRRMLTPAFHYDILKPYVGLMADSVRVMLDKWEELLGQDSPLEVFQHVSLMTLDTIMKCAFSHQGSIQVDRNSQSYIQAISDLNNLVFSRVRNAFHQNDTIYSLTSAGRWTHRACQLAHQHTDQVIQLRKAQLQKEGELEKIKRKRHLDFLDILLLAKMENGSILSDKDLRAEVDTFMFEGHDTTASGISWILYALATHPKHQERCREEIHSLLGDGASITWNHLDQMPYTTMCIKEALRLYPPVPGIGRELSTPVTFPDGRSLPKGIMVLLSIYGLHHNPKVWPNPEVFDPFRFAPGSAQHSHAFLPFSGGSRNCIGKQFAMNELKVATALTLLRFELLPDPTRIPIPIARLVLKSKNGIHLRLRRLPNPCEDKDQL

[3] = Apparent permeability of the compound by PAMPA assay; assay type: ADME
Cytochrome P450 2J2 = target: T2, Cytochrome P450 2J2 (Homo sapiens, UniProt P51589); assay: Inhibition of recombinant human CYP2J2 expressed in baculovirus-infected insect cells in presence of arachidonic acid and NADPH incubated for 15 mins by jump-dilution assay relative to control; assay type: ADME
T2 sequence (P51589 whole entry): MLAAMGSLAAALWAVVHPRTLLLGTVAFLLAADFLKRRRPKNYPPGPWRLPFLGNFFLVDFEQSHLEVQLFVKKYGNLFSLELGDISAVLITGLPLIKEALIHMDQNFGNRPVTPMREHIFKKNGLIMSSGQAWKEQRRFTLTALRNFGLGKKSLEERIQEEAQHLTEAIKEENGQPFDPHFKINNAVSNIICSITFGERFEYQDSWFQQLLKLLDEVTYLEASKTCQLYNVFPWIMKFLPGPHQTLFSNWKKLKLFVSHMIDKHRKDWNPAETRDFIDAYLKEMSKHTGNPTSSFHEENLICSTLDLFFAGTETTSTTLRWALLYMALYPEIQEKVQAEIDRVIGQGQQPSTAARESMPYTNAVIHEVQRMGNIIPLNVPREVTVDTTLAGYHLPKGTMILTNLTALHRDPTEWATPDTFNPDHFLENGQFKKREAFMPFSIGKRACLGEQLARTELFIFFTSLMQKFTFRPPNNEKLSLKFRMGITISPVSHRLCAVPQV

Cytochrome P450 4F2 = target: T3, Cytochrome P450 4F2 (Homo sapiens, UniProt P78329); assay: Inhibition of recombinant human CYP4F2 expressed in baculovirus-infected insect cells in presence of arachidonic acid and NADPH incubated for 15 mins by jump-dilution assay; assay type: ADME
T3 sequence (P78329 whole entry): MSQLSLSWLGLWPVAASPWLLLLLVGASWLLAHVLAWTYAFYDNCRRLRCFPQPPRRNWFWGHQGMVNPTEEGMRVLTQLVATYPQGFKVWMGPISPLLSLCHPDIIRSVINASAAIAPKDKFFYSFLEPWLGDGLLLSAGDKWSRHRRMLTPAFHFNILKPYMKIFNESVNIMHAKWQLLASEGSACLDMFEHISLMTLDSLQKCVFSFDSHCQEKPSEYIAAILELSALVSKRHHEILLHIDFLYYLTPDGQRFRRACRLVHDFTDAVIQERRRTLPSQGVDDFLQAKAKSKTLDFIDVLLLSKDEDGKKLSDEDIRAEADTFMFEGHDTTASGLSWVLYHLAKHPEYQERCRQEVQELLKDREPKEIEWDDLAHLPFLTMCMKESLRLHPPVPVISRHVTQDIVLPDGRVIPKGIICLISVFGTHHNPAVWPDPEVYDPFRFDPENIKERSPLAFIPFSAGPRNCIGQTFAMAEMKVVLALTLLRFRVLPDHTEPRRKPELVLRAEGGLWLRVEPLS

Homo sapiens = organism: Homo sapiens; assay: Selectivity index, log ratio of Inhibition of CYP450 in human liver microsomes assessed as inhibition of EpETrE formation in presence of arachidonic acid to Inhibition of CYP450 in human liver microsomes assessed as inhibition of 20-HETE formation in presence of arachidonic acid
CYP2J2 = target: T4, CYP2J2 (Homo sapiens, UniProt P51589); assay: Inhibition of recombinant human CYP2J2 expressed in baculovirus-infected insect cells at 50 uM incubated for 15 mins in presence of arachidonic acid and NADPH by jump-dilution assay relative to control; assay type: ADME; details: probe arachidonic acid
T4 sequence (P51589 whole entry): T2 sequence (P51589 whole entry)

[4] = Inhibition of CYP450 in Sprague-Dawley rat liver microsomes assessed as inhibition of 20-HETE formation in presence of arachidonic acid and NADPH by multi-enzyme assay based LC-MS/MS analysis relative to control; assay type: ADME, Microsome
CYP4A11 = target: T5, CYP4A11 (Homo sapiens, UniProt Q02928); assay: Inhibition of recombinant human CYP4A11 expressed in baculovirus-infected insect cells at 50 uM incubated for 15 mins in presence of arachidonic acid and NADPH by jump-dilution assay relative to control; assay type: ADME; details: probe arachidonic acid
T5 sequence (Q02928 whole entry): T1 sequence (Q02928 whole entry)

[5] = Plasma protein binding in human assessed as bound fraction by rapid equilibrium dialysis assay; assay type: ADME, cell-free; details: read-out: PPB
[6] = Inhibition of CYP450 in B6C3F1 mouse liver microsomes assessed as inhibition of 20-HETE formation in presence of arachidonic acid and NADPH by multi-enzyme assay based LC-MS/MS analysis; assay type: ADME, Microsome
[7] = Inhibition of CYP450 in B6C3F1 mouse liver microsomes assessed as inhibition of 20-HETE formation in presence of arachidonic acid and NADPH by multi-enzyme assay based LC-MS/MS analysis relative to control; assay type: ADME, Microsome
[8] = Octanol-water partition coefficient, logP of the compound incubated for 1 hr by HPLC analysis; assay type: physicochemical
[9] = Inhibition of CYP450 in Sprague-Dawley rat liver microsomes assessed as inhibition of 20-HETE formation in presence of arachidonic acid and NADPH by multi-enzyme assay based LC-MS/MS analysis; assay type: ADME, Microsome
[10] = target: CYP450 (20-HETE formation) (Homo sapiens, UniProt P04798+P05177+P05181+P08684+P10632+P10635+P11509+P11712+P13584+P20813+P20815+P20853+P24462+P24903+P33260+P33261+P51589+P78329+P98187+Q02928+Q08477+Q16678+Q16696+Q5TCH4+Q6VVX0+Q7Z449+Q8TAV3+Q96SQ9+Q9HB55); assay: Inhibition of CYP450 in human liver microsomes assessed as inhibition of 20-HETE formation in presence of arachidonic acid and NADPH by multi-enzyme assay based LC-MS/MS analysis relative to control; assay type: ADME, Microsome; details: probe arachidonic acid

O=c1cc(-c2ccc(C(F)(F)F)cc2)oc2ccccc12
solubility thermodynamic [1]: 3.4 µM (≈ 0.987 µg/mL)
remaining at 24 h [2]: 89%
IC50 (Cytochrome P450 4A11): 50 µM
Papp [3]: 4.6 ×10⁻⁶ cm/s
IC50 (Cytochrome P450 2J2): 50 µM
IC50 (Cytochrome P450 4F2): 0.87 µM
log(ratio) (Homo sapiens): 0.58
inhibition at 0.25 h, 50 µM (CYP2J2): < 25%
IC50 [4]: 1.4 µM
inhibition at 0.25 h, 50 µM (CYP4A11): < 25%
fraction unbound [5]: < 0.05
IC50 [6]: 7.6 µM
IC50 [7]: 0.71 µM
logP at 1 h [8]: 4.06
IC50 [9]: 4.3 µM
IC50 [10]: 2.8 µM
